# Data published in patent publication US10300070B2, “Metabolically-activated drug conjugates to overcome resistance in cancer therapy” (The Brigham and Women's Hospital, Inc., priority 2014, dated 2019).
# Key:
# [1] = test system: residual tumor tissue; experiment: Total intratumoral GSH in residual tumor of syngeneic mammary carcinoma; type: in vivo, mice; settings: DTX 10 mg/kg i.v., vs vehicle control cohorts
# Method: G) Total intratumoral GSH obtained from residual tumor tissue homogenate of a syngeneic mammary carcinoma treated with vehicle or DTX (10 mg/kg i.v.). N=4 groups, ***p<0.001.
# In vitro detection of glucose uptake was performed using 2-(N-7-Nitrobenz-2-oxa-1,3-diazol-4-yl)Amino)-2-Deoxyglucose (2-NBDG) (Invitrogen, Carlsbad Calif.), dissolved in DMSO to 50 mM. Cells were pre-treated with kinase inhibitors or vehicle for 3 hours in glucose- and phenol red-free media before addition of 50 μM 2-NBDG and subsequently read by FACS ex/em 488/535 nm. ROS was determined by pre-loading cells with CM-DCFDA (1 μM), washed 2 times with PBS and subsequently treated with H2O2 or vehicle; when kinase inhibitors were included in treatment, cells were first incubated with inhibitor for 3 hours prior to CM-DCFDA loading. Fluorescence was then determined by FACS ex/em 488/535 nm. For the following assays, cells were trypsinized and counted by Nexcelom cell counter (Lawrence, Mass.) prior to being subjected to analysis in order to achieve a quantitative value per cell: Reduced glutathione was determined using a colorimetric glutathione recycling system by DTNB following manufacturer protocol (Biovision, Milpitas Calif.). […] Protein synthesis was measured by two means 1. […] Fluorescence was detected by FACS as described below. […] GFP protein translation was determined by fluorescent microscopy. […]
# [2] = test system: MDA-MB-231 cells; experiment: Single cell, real-time assessment of mitochondrial ROS (MitoSox); type: cell-based; settings: docetaxel 50 nM
# Method: Single cell analysis was performed as follows: Mitosox Red (Invitrogen, Carlsbad Calif.) was incubated with live parent cells for 30 minutes (5 μM), washed and recovered in phenol red-free DMEM with 2% FBS and treated with docetaxel (50 nM). Equivalent exposure times of immunofluorescent microscopy were used at each interval which was originally set at time 0 against an unstained control cell population. Images were captured by a NIKON Eclipse TI-U microscope with a 20× ELDW or 10× or 40× Plan-Apo objective lens (Nikon, Melville N.Y.) and NIS Elements Viewer version 3.22 (Nikon, Melville N.Y.) imaging software. A negative control (non-transfected) cell subset was used to normalize background and autofluorescence following docetaxel treatment. Individual cells were tracked over time and indications of cell death were noted using a 2 TdT-Fluor In Situ apoptosis detection kit (Trevigen Gaithersburg Md.). Cells were plotted as a function of apoptosis induction (or loss of adherence to culture dish indicating cell death) and changes in Mitosox fluorescence over time as shown in main figures.
# [3] = test system: CD44 and GLUT1; experiment: Confocal microscopy of CD44 and GLUT-1 in residual tumors, orthotopic syngeneic mammary carcinoma model (4T-1); type: in vivo, mice; settings: 72 hours after docetaxel at MTD (10 mg/kg i.v.) vs vehicle
# Method: 1 million 4T-1 mouse mammary carcinoma cells suspended in 100 μL PBS were injected per left flank of 5-6 week old Balb/C (heterotopic) or mammary fat pad (orthotopic). Docetaxel (DTX) was dissolved in pure Ethanol at a concentration of 50 mg/ml mixed 1:1 with Polysorbate 80 (Tween 80) and brought to a final working concentration with PBS. Tumor volumes were assessed by the following formula: (Width×Width×length)/2 and values were utilized to calculate tumor specific growth rate (SGR) by the algorhythm (ln [V2/V1]/[t2−t1)] where V=volume and t=time in days^64. For in vivo analysis of 2-NBDG uptake, mice were treated as indicated (i.e. Docetaxel intratumoral or intravenously) and monitored until tumors reached ˜300 mm^3. Subsequently, mice were administered a 10 mg/kg i.v. injection of 2-NBDG 2 hours prior to sacrificing and harvesting tumors for confocal microscopic analysis by frozen section (described below). […] Glucose quantitation (mg/dL) was measured using the onetouch lifescan glucose monitor (Life Scan, Inc. Militipas, Calif.) by calculating mg of glucose per volume of tissue homogenate (in PBS) and normalized as a ratio of mg/dL of glucose to mg of tissue homogenized. Typically, >250 mg of tissue was homogenized in 50 μL of PBS to achieve a readable output. […]
structure (smiles),measurement,setting,value
CC(=O)O[C@@]12CO[C@@H]1C[C@H](O)[C@@]1(C)C(=O)[C@H](O)C3=C(C)[C@@H](OC(=O)[C@H](O)[C@@H](NC(=O)OC(C)(C)C)c4ccccc4)C[C@@](O)([C@@H](OC(=O)c4ccccc4)[C@H]21)C3(C)C [docetaxel],whole cell GSH in residual tumor,[1],significant global increase
same,time of mitochondrial ROS burst in cells which survive,[2],4 to 8 h
same,expression of CD44 and GLUT1 in residual tumors,[3],enhanced expression of both CD44 and GLUT1
